Measured values published in publication PMC3207826, “Phase I Evaluation of STA-1474, a Prodrug of the Novel HSP90 Inhibitor Ganetespib, in Dogs with Spontaneous Cancer” (PLoS ONE, 2011).
Entries after “also recorded” stand apart in the source; their conditions may differ.

Legend:
[1] = Toxicity assessment (VCOG-CTCAE grades) in Phase I trial; type: in vivo, dogs
Protocol: This study was a Phase I dose escalating, open label assessment of the safety and pharmacokinetics of STA-1474 in client owned dogs with spontaneous malignancies. Dogs were administered STA-1474 on one of three dosing regimens and were evaluated weekly or twice per week dependent on the regimen used. Assessment of clinical toxicities and tumor response was performed at each visit. Dogs were evaluated for hematologic and biochemical toxicities every 7 days with routine bloodwork. The initial dose of STA-1474 was set at 7 mg/kg based on previous data from normal laboratory dogs (data not shown) and dose escalation was set at 2.5 mg/kg increments in cohorts of 3 until dose limiting toxicity (DLT) was identified. The DLT was considered to be any grade 3 or 4 hematologic or non-hematologic toxicity based on the established VCOG-CTAE criteria. […] Disease progression or signs and symptoms definitely related to disease were not considered adverse events (AEs).
Each patient underwent a baseline complete history, physical examination, and predose laboratory assessment that included a complete blood count (CBC), serum biochemistry profile, and urinalysis. Patients were assessed for adverse events on days 8, 15, 22, and 29, at which time a complete blood count with differential and clinical chemistry were performed. Urinalysis was performed at baseline and repeated only if indicated. Stipulations regarding minimal hematological requirements to continue dosing were included in the protocol: hematocrit >25%, neutrophils >[…], platelets >[…]. In addition, liver transaminases were required to be <4X upper limit of normal with a normal total bilirubin and serum creatinine to continue STA-1474 therapy.

spontaneous tumors = test: Tumor response assessment (RECIST); type: in vivo, dogs
Protocol: Tumor assessments were completed prior to study entry, and days 8, 15, 22, and 29. For dogs that continued beyond the planned 4 doses of STA-1474, response assessments were performed every 3–6 weeks thereafter, or at the time of suspected tumor progression. Responses were assessed by the investigator according to pre-defined protocol criteria. The response in dogs with assessable disease was performed by clinical examination, radiography, ultrasonography, or CT scans. Many lesions were not amenable for quantitative radiographic imaging, but were followed either by serial clinical examination (superficial lesions; palpable lymph nodes) or by ultrasonography (abdominal lymph nodes). Thoracic lesions were assessed by thoracic radiography and nasal lesions by CT scan.
The response in dogs with measurable disease was judged by the investigator on the basis of RECIST criteria. A complete response (CR) was defined as disappearance of all disease on two measurements separated by a minimum period of 3 weeks. A partial response (PR) was defined as greater than 30% reduction in the sum of the longest diameter of the target lesions documented by two assessments separated by at least 3 weeks. An increase of >20% in the size of all measurable tumor areas as measured by the sum of longest diameters of the target lesions taken as reference the smallest sum since initiation of therapy, or the appearance of any new lesion(s) would qualify as progressive disease (PD). A mixed response (MR) was defined as PR in some target lesions with PD in other target lesions. Stable disease (SD) was defined by the absence of criteria for either a response or progression. Dogs who had no evidence of tumor progression and who had not experienced any unacceptable toxicity were eligible for extended treatment cycles. Dose escalation in an individual dog was permitted if the dog was tolerating therapy.

HSP70 = test: Evaluation of HSP70 expression in tumor biopsies and PBMCs (ELISA, Western blot); type: in vivo, dogs
HSP90 = test: Evaluation of tumor biopsies for HSP90 expression (Western blot); type: in vivo, dogs; conditions: tumor samples, 24 hrs following treatment, 5 mg/kg over 1 hour
Protocol: Frozen tumor samples were processed as described above, then resuspended in 100–150 uL of lysis buffer consisting of 20 mM Tris-HCl pH 8.0, 137 mM NaCl, 10% glycerol, 1% IGEPAL CA-630, 10 mM ethylenediaminetetraacetic acid (EDTA), 1 mg/mL aprotinin, 1 mg/mL leupeptin, 1 mg/mL pepstatin A, 1 mM phenylmethysulphonyl fluoride, 1 mM sodium orthovanadate, 10 mM sodium fluoride (all from Sigma, St. Louis, MO). Sample were rocked at 4°C for 1 hour, and then centrifuged for 15 minutes at 13,000 RCF. A Bradford protein assay was performed on the lysates using BioRad Reagent (Hercules, CA). 60–100 µg of protein were separated by SDS-page, and transferred to PVDF membranes. The membranes were incubated overnight with anti-HSP90 antibodies (Cell Signaling Technology, Danvers, MA), washed, then incubated with horseradish peroxidase linked secondary antibody. Membranes were washed again, then exposed to Super Signal West Dura Extended Duration Substrate (Pierce, Rockford, IL) Membranes were stripped, washed, and reprobed for β-Actin (Santa Cruz Biotechnology, Santa Cruz, CA) using the SNAP i.d. apparatus (Millipore, Billerica, MA) according to manufacture's instructions.

[2] = tested on: canine MCT and OSA cell lines; conditions: cited from earlier work; for activity compared with 17-AAG: OSA and MCT cell lines
OSA xenografts = conditions: cited from earlier work
[3] = Ganetespib pharmacokinetics in plasma after STA-1474 infusion (LC-MS/MS); type: in vivo, dogs; conditions: for half-life / AUC(0-t) / Cmax / Tmax: iv, STA-9090 in plasma, mean, day 1
Protocol: Plasma samples were collected on day 1 and day 22 of therapy at the specified intervals: before and after dosing at 30, 60, 90, 120, 180, 300 (5 hr), 540 (9 hr), and 1440 (24 hr) minutes relative to the start of dosing. On day 8, day 15, and day 29, plasma was collected before dosing only. Approximately 1 ml of blood was drawn from an indwelling catheter, placed in a sodium heparin vacuum glass tube, and placed on ice until centrifugation. Blood samples were centrifuged at 3300 rpm for 10 minutes, within 30 minutes of collection. Plasma was transferred by pipette into two cryovials and stored at −80°C until analysis.
Plasma concentrations of ganetespib were determined using a qualified liquid chromatography tandem mass spectrometry (LC-MS/MS) method. Samples were analyzed on an HPLC system consisting of an Agilent HP1100 separation module (Santa Clara, CA) coupled to an AB SCIEX API400 MS/MS detector (Foster City, CA). Stable isotope-labeled ganetespib was used as an internal standard. Sample extraction was performed by a liquid-liquid extraction method with 25 µL plasma samples and 800 µL methyl tertiary butyl ether. The organic phase of samples was evaporated to dryness under nitrogen and reconstituted with water/acetonitrile solution for injection. Chromatographic separation was achieved on a reverse-phase analytical column (4 µm particle, 50×2.0 mm i.d.) with gradient elution of water/0.1% formic acid and acetonitrile/0.1% formic acid at a flow rate of 500 µL/min. The total run time was 4 min. Quantitation was achieved by MS/MS detection in positive ion mode by multiple reaction monitoring. The lower limit of quantitation (LLOQ) was 1.00 ng/mL, with a concentration range from 1.00 to 1000 ng/mL.
The pharmacokinetic parameters for ganetespib were determined from the plasma concentration data using the Noncompartmental Analysis module in WinNonlin, version 5.2 (Pharsight Corporation, St.Louis, MO). The predose samples that measured below the LLOQ (BQL) were treated as zero for the calculations. Maximum concentration (Cmax) and time of maximum concentration (Tmax) were directly determined from the observed concentration-time profiles. The area under the plasma concentration-time curve (AUC) was estimated by the linear trapezoidal rule. The apparent half-life (t1/2) was calculated as t1/2 = 0.693/λ where λ was the elimination rate constant estimated from the regression of the terminal slope of the concentration versus time curve.

human cancer cell lines = tested on: human cancer cell lines; parameters: method as in earlier work; conditions: in vitro; 15 and unpublished data, Synta Pharmaceuticals Corp.; cited from earlier work
MCT xenograft = conditions: murine MCT xenograft model; cited from earlier work
[4] = 1 hr/2x week, 5.0 mg/kg, 7 dogs
[5] = dog, plasma, 5 mg/kg, STA-1474 5 mg/kg, 1 h infusion, twice weekly
[6] = dog, plasma, 9.5 mg/kg, STA-1474 9.5 mg/kg, 1 h infusion, once weekly
[7] = dog, plasma, 9.5 mg/kg, STA-1474 9.5 mg/kg, 8 h infusion, once weekly

Structure (SMILES): CC(C)c1cc(-c2nnc(O)n2-c2ccc3c(ccn3C)c2)c(O)cc1OP(=O)(O)O [STA-1474]
- Anorexia grade 1 (count) [1, 4]: 3
- Anorexia grade 2 (count) [1, 4]: 5
- Diarrhea grade 1 (count) [1, 4]: 5
- Diarrhea grade 2 (count) [1, 4]: 1
- Diarrhea grade 3 (count) [1, 4]: 1
- Lethargy grade 1 (count) [1, 4]: 4
- Lethargy grade 2 (count) [1, 4]: 2
- Anorexia grade 2 (count) ([1]; 1 hr/week, 7.0 mg/kg, 4 dogs): 2
- Diarrhea grade 1 (count) ([1]; 1 hr/week, 7.0 mg/kg, 4 dogs): 2
- Diarrhea grade 2 (count) ([1]; 1 hr/week, 7.0 mg/kg, 4 dogs): 3
- Lethargy grade 1 (count) ([1]; 1 hr/week, 7.0 mg/kg, 4 dogs): 2
- Vomiting grade 1 (count) ([1]; 1 hr/week, 7.0 mg/kg, 4 dogs): 3
- Diarrhea grade 1 (count) ([1]; 1 hr/week, 9.5 mg/kg, 5 dogs): 1
- Diarrhea grade 3 (count) ([1]; 1 hr/week, 9.5 mg/kg, 5 dogs): 1
- Lethargy grade 2 (count) ([1]; 1 hr/week, 9.5 mg/kg, 5 dogs): 1
- Lethargy grade 3 (count) ([1]; 1 hr/week, 9.5 mg/kg, 5 dogs): 1
- Vomiting grade 2 (count) ([1]; 1 hr/week, 9.5 mg/kg, 5 dogs): 2
- Anorexia grade 2 (count) ([1]; 1 hr/week, 10.25 mg/kg, 3 dogs): 3
- Diarrhea grade 2 (count) ([1]; 1 hr/week, 10.25 mg/kg, 3 dogs): 3
- Lethargy grade 2 (count) ([1]; 1 hr/week, 10.25 mg/kg, 3 dogs): 3
- Vomiting grade 2 (count) ([1]; 1 hr/week, 10.25 mg/kg, 3 dogs): 1
- Anorexia grade 1 (count) ([1]; 8 hr/week, 9.5 mg/kg, 6 dogs): 5
- Anorexia grade 2 (count) ([1]; 8 hr/week, 9.5 mg/kg, 6 dogs): 4
- Diarrhea grade 1 (count) ([1]; 8 hr/week, 9.5 mg/kg, 6 dogs): 4
- Diarrhea grade 2 (count) ([1]; 8 hr/week, 9.5 mg/kg, 6 dogs): 4
- Lethargy grade 1 (count) ([1]; 8 hr/week, 9.5 mg/kg, 6 dogs): 2
- Vomiting grade 2 (count) ([1]; 8 hr/week, 9.5 mg/kg, 6 dogs): 3
- maximum tolerated weekly dose ([1]; administered weekly over 1 or 8 hours, intravenous): 9.5 mg/kg
- hematologic or biochemical toxicities ([1]; any doses or regimens): No drug-related hematologic or biochemical toxicities; also recorded: no evidence of hematologic toxicity
- dogs with partial responses (spontaneous tumors; 5 mg/kg over one hour twice per week, 7 dogs, both MCTs): 2
- objective responses (spontaneous tumors; 1 hr once per week dosing regimen, n = 12, exception one dog with oral malignant melanoma after extravasation): no objective responses
- biologic activity rate (spontaneous tumors; 8 hour infusion group, 9.5 mg/kg once weekly, 2PR, 1 MR, 2 SD of 6): 83%
- response rate (measurable objective responses) (spontaneous tumors; all dogs, 6/25): 24%
- overall biological activity (objective responses plus stable disease >10 weeks) (spontaneous tumors; all dogs, 9/25): 36%
- duration of mixed response (spontaneous tumors; metastatic MCT, 8 hour infusion 9.5 mg/kg): 16 weeks
- duration of partial response (spontaneous tumors; metastatic OSA, 8 hour infusion 9.5 mg/kg): 20 weeks
- duration of partial response (spontaneous tumors; metastatic thyroid carcinoma, 8 hour infusion 9.5 mg/kg): 36 weeks
- duration of stable disease (spontaneous tumors; metastatic thyroid carcinoma, switched from 1 hr to 8 hr infusion): 40 weeks
- duration of continued partial response (spontaneous tumors; oral malignant melanoma with extravasation event, on 8 hour infusion protocol): 12 weeks
- duration of stable disease (spontaneous tumors; two dogs, both metastatic OSA, 8 hour infusion 9.5 mg/kg): 12 weeks
- HSP70 expression (Western blot) (HSP70; PBMCs, 24 hours after 9.5 mg/kg over 8 hours): small increases in HSP70 expression
- time to upregulation of HSP70 protein expression (HSP70; tumor specimens and PBMCs, following drug administration): ≤ 7 h
- HSP90 expression levels (Western blot) (HSP90): did not appear to change substantially
- activity compared with 17-AAG [2]: superior activity
- tumor effect (OSA xenografts): induced tumor regression

Structure (SMILES): CC(C)c1cc(-c2n[nH]c(=O)n2-c2ccc3c(ccn3C)c2)c(O)cc1O [ganetespib]
- sustained blood levels ([3]; dog with oral melanoma, extravasation (mostly subcutaneous) of STA-1474, first dosing cohort): 200 to 600 ng/mL
- duration of sustained blood levels ([3]; dog with oral melanoma, extravasation of STA-1474, levels between 200–600 ng/ml): 8 to 10 h
- half-life ([3]; dog, STA-1474 5 mg/kg, 1 h infusion, twice weekly): 366 min
- half-life ([3]; dog, STA-1474 9.5 mg/kg, 1 h infusion, once weekly): 336 min
- AUC ([3]; dog, plasma, intravenous, range over the three dosing regimens of STA-1474): 5010 to 5700 ng·h/mL
- AUC(0-t) [3, 5]: 5010 ng·h/mL
- Cmax [3, 5]: 3420 ng/mL
- Tmax [3, 5]: 1.1 h
- AUC(0-t) [3, 6]: 5700 ng·h/mL
- Cmax [3, 6]: 3980 ng/mL
- Tmax [3, 6]: 0.7 h
- AUC(0-t) [3, 7]: 5600 ng·h/mL
- Cmax [3, 7]: 802 ng/mL
- Tmax [3, 7]: 5.7 h
- activity compared with 17-AAG [2]: superior activity
- concentrations for biologic effects, lower than those for 17-AAG ([2]; canine MCT and OSA cell lines): at least 1 log
- concentrations killing cancer cell lines (human cancer cell lines): low nanomolar concentrations
- tumor growth (MCT xenograft): inhibited tumor growth
